Reference: PubChem BioAssay (NCI)
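A five-concentration, 48-hour dose response in 96-well plates underlies each endpoint, interpolated linearly between surrounding concentrations. Here, GI50 denotes the concentration required for 50% inhibition of growth. TGI is the concentration that stops growth completely.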

How the values were obtained:
Test in all cases: inhibition of tumour cell growth, NCI panel, 48 h
[1] = system: HT29 colon
[2] = system: EKVX NSCLC
[3] = system: TK-10 renal
[4] = system: LOX IMVI melanoma
[5] = system: SK-MEL-28 melanoma
[6] = system: MALME-3M melanoma
[7] = system: RXF 393 renal
[8] = system: M14 melanoma
[9] = system: CAKI-1 renal
[10] = system: A549 NSCLC

| SMILES | TGI [1] | TGI [2] | TGI [3] | TGI [4] | TGI [5] | TGI [6] | TGI [7] | TGI [8] | TGI [9] | TGI [10] | GI50 [1] | GI50 [2] | GI50 [3] | GI50 [4] | GI50 [5] | GI50 [6] | GI50 [7] | GI50 [9] | GI50 [10] |
| --- | --- | --- | --- | --- | --- | --- | --- | --- | --- | --- | --- | --- | --- | --- | --- | --- | --- | --- | --- |
| Clc1ccccc1/C=C/c1cscn1 | > 100 µM | > 100 µM | > 100 µM | > 100 µM | > 100 µM | > 100 µM | > 100 µM | > 100 µM | – | – | – | – | – | – | – | – | – | – | – |
| CCOC(=O)CN=C1NNS(=O)(=O)c2ccccc21 | > 100 µM | > 100 µM | > 100 µM | > 100 µM | > 100 µM | > 100 µM | > 100 µM | > 100 µM | > 100 µM | > 100 µM | – | – | – | – | – | – | – | – | – |
| C=C(C)C(=O)OC1CCC2(C)C(CCC3C2CCC2(C)C(c4ccc(=O)oc4)CC4OC432)C1 (centres undefined) | 52 µM | 11 µM | – | 24.1 µM | 44.5 µM | 26.4 µM | 9.95 µM | – | 15 µM | 25.4 µM | – | – | – | – | – | – | – | – | – |
| CCOC(=O)C(O)(NC(=O)c1ccc(F)cc1)C(F)(F)F (centres undefined) | > 100 µM | > 100 µM | > 100 µM | > 100 µM | > 100 µM | > 100 µM | > 100 µM | > 100 µM | > 100 µM | > 100 µM | – | – | – | – | – | – | – | – | – |
| Cc1cc(O)c(C(C)(C)C)cc1Sc1cc(C(C)(C)C)c(O)cc1C | 4.47 µM | 11.6 µM | 6.22 µM | 3.64 µM | 3.09 µM | 5.71 µM | 3.39 µM | – | 6.62 µM | 10.3 µM | 2.34 µM | 2.93 µM | 2.54 µM | 1.97 µM | 1.63 µM | 2.32 µM | 1.82 µM | 2.07 µM | 3.1 µM |
